# In US20180250306A1, “ALDEHYDE CONJUGATES AND USES THEREOF” (ALDEYRA THERAPEUTICS, INC., priority 2015, published 2018):
# Tested on: SSADH null mice
# Assay: Eight-hour NS2 treatment (metabolite) study in wild type and SSADH null mice
# Type: in vivo
# Source text: Mice were 22-23 days old on the day of treatment, and groups (n=3) were balanced for age and gender. […] Future studies in this model will encompass a dose-finding paradigm to ensure adequate target exposure; dose earlier in life; and increase group sizes.
# The design of the study was as follows: • Treatment groups were balanced for date of birth, gender, and weight. • SSADH null mice were generated by crossing mice heterozygous for SSADH deficiency. Expected number of null progeny is 1 in 4. Seven SSADH null mice were generated from this breeding, of which three were assigned to group 3 and four were assigned to group 4.
# • On the day of dosing, NS2 and vehicle were brought to room temperature. […] This working solution was prepared at room temperature, using aseptic technique in the animal dosing suite, and was used within one hour of preparation. • Dosing volume was ˜0.4 μL/g body weight for both mutant and wild-type subjects (note: the average body weight for the SSADH null mice is ˜4.9±0.9 g, and that of age-matched wild-type littermate is 10.2±0.9 g). DMSO total dose is weight normalized. • Leftover working solutions were discarded.
# Organs were snap frozen in liquid nitrogen for biochemical analysis and stored at −80° C. • A terminal cardiac blood sample was obtained in a standard microtainer for serum collection. Serum was prepared by centrifugation for 10 minutes at […] (2500×g) and stored at −80° C. until analyses. […]
# Plasma and tissue homogenates were shipped to the laboratory of Professor Gajja Salomons (VU Medical Center, Amsterdam, the Netherlands) on May 11, 2015. SSA, GHB and D2HG levels were assayed in the Salomons laboratory using the following published methods: 1) “Stable isotope dilution analysis of 4-hydroxybutyric acid: an accurate method for quantification in physiological fluids and the prenatal diagnosis of 4-hydroxybutyric aciduria,” Gibson et al., 1990, Biomed Environ Mass Spectrom. […]
# [1] = SSADH null mice, 8 hours after single 10 mg/kg i.p.
structure (smiles),measurement,setting,value
"CC(C)(O)c1nc2ccc(Cl)cc2cc1N [NS2, 2-(3-amino-6-chloroquinolin-2-yl)propan-2-ol]",GHB and D-2-HG in liver,[1],tendency for decrease
same,"change in levels of metabolites (GHB, SSA, D-2-HG)",[1],no statistically significant changes
same,tolerability,"mouse, in vivo, ip, 10 mg/kg",well-tolerated
